Earlier results as cited in patent US12582625B2, “Methods for treating neuroblastoma” (priority 2015, dated 2026).

Assays:
[1] = system: tumors harboring Ki-ras mutations; conditions: AOM-treated rats, reduced from 90% (Singh et al., 1994); cited from earlier work
[2] = in vivo; cited from earlier work
[3] = cited from earlier work
[4] = human, in vivo; cited from earlier work

## CN1C(C(=O)Nc2ccccn2)=C(O)c2ccccc2S1(=O)=O [piroxicam, 4 hydroxy-2-methyl-N-2-pyridyl-2H-1,2-benzothiazine-3-carboxamide 1,1-dioxide]
[1]
  tumors harboring Ki-ras mutations: 25%

## Cc1ccc(-c2cc(C(F)(F)F)nn2-c2ccc(S(N)(=O)=O)cc2)cc1 [celecoxib, 4-[5-(4-Methylphenyl)-3-(trifluoromethyl)pyrazol-1-yl]benzenesulfonamide]
[2]
  increase in rates of heart and blood vessel disease: 30%
  risk of gastrointestinal side effects: greater than 80%

## CC1=C(CC(=O)O)c2cc(F)ccc2/C1=C\c1ccc([S+](C)[O-])cc1 (stereo not shown) [sulindac, (Z)-5-fluoro-2-methyl-1-((4-(methylsulfinyl)phenyl)methylene)-1H-chemical indene-3-acetic acid]
[3]; after oral administration
  drug absorbed: about 90%
[3]; fasting patients
  time to peak plasma levels: about 2 hours
[4]
  patients with mild gastrointestinal effects: ~20%
  patients with skin rash and pruritus: 5%
